Source: patent US9688676B2, “Tyrosine kinase inhibitors” (PRINCIPIA BIOPHARMA INC., priority 2015, dated 2017)

Target: BTK (Homo sapiens (Human), UniProt Q06187)
Test: BTK enzymatic activity assay (Caliper-based kinase assay)
Assay type: biochemical
Settings: human recombinant BTK 0.5 nM, ATP 16 μM, 3 h room temperature
Experimental: A Caliper-based kinase assay (Caliper Life Sciences, Hopkinton, Mass.) was used to measure inhibition of BTK kinase activity of a compound of the present disclosure. […] The reaction was then terminated with EDTA, final concentration 20 mM and the phosphorylated reaction product was quantified on a Caliper Desktop Profiler (Caliper LabChip 3000). […] This value is presented as the IC50.

Sequence of BTK (Q06187 whole entry): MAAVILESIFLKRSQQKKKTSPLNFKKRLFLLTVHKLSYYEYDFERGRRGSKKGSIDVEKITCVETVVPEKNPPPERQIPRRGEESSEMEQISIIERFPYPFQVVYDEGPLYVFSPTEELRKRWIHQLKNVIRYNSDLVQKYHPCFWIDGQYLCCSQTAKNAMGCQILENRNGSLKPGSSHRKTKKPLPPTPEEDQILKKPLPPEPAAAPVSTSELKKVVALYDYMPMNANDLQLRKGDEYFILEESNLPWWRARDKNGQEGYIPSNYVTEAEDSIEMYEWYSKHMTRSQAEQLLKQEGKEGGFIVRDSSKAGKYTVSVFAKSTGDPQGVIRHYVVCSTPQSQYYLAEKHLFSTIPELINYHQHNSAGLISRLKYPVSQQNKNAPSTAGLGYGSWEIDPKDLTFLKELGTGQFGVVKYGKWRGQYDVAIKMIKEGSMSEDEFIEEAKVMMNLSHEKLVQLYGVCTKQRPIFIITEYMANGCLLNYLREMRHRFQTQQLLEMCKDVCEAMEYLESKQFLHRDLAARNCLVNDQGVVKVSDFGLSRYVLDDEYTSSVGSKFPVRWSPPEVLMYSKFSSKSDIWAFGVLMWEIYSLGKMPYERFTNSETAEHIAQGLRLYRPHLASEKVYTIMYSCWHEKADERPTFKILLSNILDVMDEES

In the case of `CC(C)(C=C(C#N)C(=O)N1CCC[C@@H](n2c(=O)n(-c3ccc(Oc4ccccc4)cc3)c3c(N)nccc32)C1)N1CCNC(=O)C1` [Compound 21, (R)-2-(3-(4-amino-2-oxo-3-(4-phenoxyphenyl)-2,3-dihydro-1H-imidazo[4,5-c]pyridin-1-yl)piperidine-1-carbonyl)-4-methyl-4-(3-oxopiperazin-1-yl)pent-2-enenitrile], the IC50 is reported as 4.6 nM.

“(R)-2-(3-(4-amino-2-oxo-3-(4-phenoxyphenyl)-2,3-dihydro-1H-imidazo[4,5-c]pyridin-1-yl)piperidine-1-carbonyl)-3-(4-methyl-1-(oxetan-3-yl)piperidin-4-yl)acrylonitrile [Compound 42]” was tested, and the IC50 was 4.1 nM.

`CC(C)(N)C=C(C#N)C(=O)N1CCC[C@@H](n2c(=O)n(-c3ccc(Oc4ccccc4)cc3)c3c(N)nccc32)C1` [Compound 57, (R)-4-amino-2-(3-(4-amino-2-oxo-3-(4-phenoxyphenyl)-2,3-dihydro-1H-imidazo[4,5-c]pyridin-1-yl)piperidine-1-carbonyl)-4-methylpent-2-enenitrile] showed an IC50 of 61.4 nM.

Work on `COC[C@H]1CCCN1C(C)(C)C=C(C#N)C(=O)N1CCC[C@@H](n2c(=O)n(-c3ccc(Oc4ccccc4)cc3)c3c(N)nccc32)C1` [Compound 62, 2-((R)-3-(4-amino-2-oxo-3-(4-phenoxyphenyl)-2,3-dihydro-1H-imidazo[4,5-c]pyridin-1-yl)piperidine-1-carbonyl)-4-((R)-2-(methoxymethyl)pyrrolidin-1-yl)-4-methylpent-2-enenitrile] yielded an IC50 of 5.9 nM.

For `CC1(C=C(C#N)C(=O)N2CCC[C@@H](n3c(=O)n(-c4ccc(Oc5ccccc5)cc4)c4c(N)nccc43)C2)CCOCC1` [Compound 37, (R)-2-(3-(4-amino-2-oxo-3-(4-phenoxyphenyl)-2,3-dihydro-1H-imidazo[4,5-c]pyridin-1-yl)piperidine-1-carbonyl)-3-(4-methyltetrahydro-2H-pyran-4-yl)acrylonitrile], the IC50 was 4.3 nM.

Compound `CN1CCN(C(=O)C(C)(C)C=C(C#N)C(=O)N2CCC[C@@H](n3c(=O)n(-c4ccc(Oc5ccccc5)cc4)c4c(N)nccc43)C2)CC1` [Compound 49, (R)-2-(3-(4-amino-2-oxo-3-(4-phenoxyphenyl)-2,3-dihydro-1H-imidazo[4,5-c]pyridin-1-yl)piperidine-1-carbonyl)-4,4-dimethyl-5-(4-methylpiperazin-1-yl)-5-oxopent-2-enenitrile] has an IC50 of 12.8 nM.

`CC(C)(C=C(C#N)C(=O)N1CCC[C@@H](n2c(=O)n(-c3ccc(Oc4ccccc4)cc3)c3c(N)ncnc32)C1)N1CCN(C2COC2)CC1` [Compound 31, (R)-2-(3-(6-amino-8-oxo-7-(4-phenoxyphenyl)-7H-purin-9(8H)-yl)piperidine-1-carbonyl)-4-methyl-4-(4-(oxetan-3-yl)piperazin-1-yl)pent-2-enenitrile] gave an IC50 of 3.7 nM.

`CC#CC(=O)N1CCC[C@H]1Cn1c(=O)n(-c2ccc(Oc3ccccc3)cc2)c2c(N)nccc21` [Compound 23, (S)-4-amino-1-((1-(but-2-ynoyl)pyrrolidin-2-yl)methyl)-3-(4-phenoxyphenyl)-1H-imidazo[4,5-c]pyridin-2(3H)-one] showed an IC50 of 25.9 nM.

`CC(C)(C=C(C#N)C(=O)N1CCC[C@@H](n2c(=O)n(-c3ccc(Oc4ccccc4)cc3)c3c(N)nccc32)C1)c1ccccn1` [Compound 55, (R)-2-(3-(4-amino-2-oxo-3-(4-phenoxyphenyl)-2,3-dihydro-1H-imidazo[4,5-c]pyridin-1-yl)piperidine-1-carbonyl)-4-methyl-4-(pyridin-2-yl)pent-2-enenitrile] was tested, and the IC50 was 3.1 nM.

`N#CC(=CC1CCSCC1)C(=O)N1CCC[C@@H](n2c(=O)n(-c3ccc(Oc4ccccc4)cc3)c3c(N)nccc32)C1` [Compound 20, (R)-2-(3-(4-amino-2-oxo-3-(4-phenoxyphenyl)-2,3-dihydro-1H-imidazo[4,5-c]pyridin-1-yl)piperidine-1-carbonyl)-3-(tetrahydro-2H-thiopyran-4-yl)acrylonitrile] gave an IC50 of 14.5 nM.

In the case of `CC(C)(C=C(C#N)C(=O)N1CCC[C@@H](n2c(=O)n(-c3ccc(Oc4ccccc4)cc3)c3c(N)nccc32)C1)N1CCN2C(=O)CC[C@@H]2C1` [Compound 61, 2-((R)-3-(4-amino-2-oxo-3-(4-phenoxyphenyl)-2,3-dihydro-1H-imidazo[4,5-c]pyridin-1-yl)piperidine-1-carbonyl)-4-methyl-4-((R)-6-oxohexahydropyrrolo[1,2-a]pyrazin-2(1H)-yl)pent-2-enenitrile], the IC50 is reported as 2.5 nM.

In the case of `CC(C)(C=C(C#N)C(=O)N1CCC[C@@H](n2c(=O)n(-c3ccc(Oc4ccccc4)cc3)c3c(N)nccc32)C1)N1CCNCC1` [Compound 47, (R)-2-(3-(4-amino-2-oxo-3-(4-phenoxyphenyl)-2,3-dihydro-1H-imidazo[4,5-c]pyridin-1-yl)piperidine-1-carbonyl)-4-methyl-4-(piperazin-1-yl)pent-2-enenitrile], the IC50 is reported as 3.1 nM.

Work on `CN1CCN(c2ccnc(C(C)(C)C=C(C#N)C(=O)N3CCC[C@@H](n4c(=O)n(-c5ccc(Oc6ccccc6)cc5)c5c(N)nccc54)C3)n2)CC1` [Compound 56, (R)-2-(3-(4-amino-2-oxo-3-(4-phenoxyphenyl)-2,3-dihydro-1H-imidazo[4,5-c]pyridin-1-yl)piperidine-1-carbonyl)-4-methyl-4-(4-(4-methylpiperazin-1-yl)pyrimidin-2-yl)pent-2-enenitrile] yielded an IC50 of 7.8 nM.

`CN(C1COC1)C(C)(C)C=C(C#N)C(=O)N1CCC[C@H]1Cn1c(=O)n(-c2ccc(Oc3ccccc3)cc2)c2c(N)nccc21` [Compound 36, (S)-2-(2-((4-amino-2-oxo-3-(4-phenoxyphenyl)-2,3-dihydro-1H-imidazo[4,5-c]pyridin-1-yl)methyl)pyrrolidine-1-carbonyl)-4-methyl-4-(methyl(oxetan-3-yl)amino)pent-2-enenitrile] gave an IC50 of 15.7 nM.

Work on `CCN1CCN(C(C)(C)C=C(C#N)C(=O)N2CCC[C@@H](n3c(=O)n(-c4ccc(Oc5ccccc5)cc4)c4c(N)nccc43)C2)CC1=O` [Compound 40, (R)-2-(3-(4-amino-2-oxo-3-(4-phenoxyphenyl)-2,3-dihydro-1H-imidazo[4,5-c]pyridin-1-yl)piperidine-1-carbonyl)-4-(4-ethyl-3-oxopiperazin-1-yl)-4-methylpent-2-enenitrile] yielded an IC50 of 5.7 nM.

Work on `CC(=O)N1CCN(C(C)(C)C=C(C#N)C(=O)N2CCC[C@@H](n3c(=O)n(-c4ccc(Oc5ccccc5)cc4)c4c(N)nccc43)C2)CC1` [Compound 44, (R)-4-(4-acetylpiperazin-1-yl)-2-(3-(4-amino-2-oxo-3-(4-phenoxyphenyl)-2,3-dihydro-1H-imidazo[4,5-c]pyridin-1-yl)piperidine-1-carbonyl)-4-methylpent-2-enenitrile] yielded an IC50 of 3.3 nM.

For `C[C@@H]1CN(C(C)(C)C=C(C#N)C(=O)N2CCC[C@@H](n3c(=O)n(-c4ccc(Oc5ccccc5)cc4)c4c(N)nccc43)C2)C[C@H](C)N1` [Compound 19, 2-((R)-3-(4-amino-2-oxo-3-(4-phenoxyphenyl)-2,3-dihydro-1H-imidazo[4,5-c]pyridin-1-yl)piperidine-1-carbonyl)-4-((3R,5S)-3,5-dimethylpiperazin-1-yl)-4-methylpent-2-enenitrile], the IC50 was 7.8 nM.

Work on `CC(C)(C=C(C#N)C(=O)N1CCC[C@@H](n2c(=O)n(-c3ccc(Oc4ccccc4)cc3)c3c(N)nccc32)C1)N1[C@@H]2CC[C@H]1COC2` [Compound 45, 2-((R)-3-(4-amino-2-oxo-3-(4-phenoxyphenyl)-2,3-dihydro-1H-imidazo[4,5-c]pyridin-1-yl)piperidine-1-carbonyl)-4-((1R,5S)-3-oxa-8-azabicyclo[3.2.1]octan-8-yl)-4-methylpent-2-enenitrile] yielded an IC50 of 25.1 nM.

`N#CC(=CC1CC1)C(=O)N1CCC[C@@H](n2c(=O)n(-c3ccc(Oc4ccccc4)cc3)c3c(N)nccc32)C1` [Compound 41, (R)-2-(3-(4-amino-2-oxo-3-(4-phenoxyphenyl)-2,3-dihydro-1H-imidazo[4,5-c]pyridin-1-yl)piperidine-1-carbonyl)-3-cyclopropylacrylonitrile] showed an IC50 of 3.1 nM.

In the case of `C=C(F)C(=O)N1CCC[C@@H](n2c(=O)n(-c3ccc(Oc4ccccc4)cc3)c3c(N)nccc32)C1` [Compound 67, (R)-4-amino-1-(1-(2-fluoroacryloyl)piperidin-3-yl)-3-(4-phenoxyphenyl)-1H-imidazo[4,5-c]pyridin-2(3H)-one], the IC50 is reported as 1.2 nM.

`Cc1cc(-n2c(=O)n([C@@H]3CCCN(C(=O)C(C#N)=CC(C)(C)N4CCN(C5COC5)CC4)C3)c3ccnc(N)c32)ccc1Oc1ccccc1` [Compound 28, (R)-2-(3-(4-amino-3-(3-methyl-4-phenoxyphenyl)-2-oxo-2,3-dihydro-1H-imidazo[4,5-c]pyridin-1-yl)piperidine-1-carbonyl)-4-methyl-4-(4-(oxetan-3-yl)piperazin-1-yl)pent-2-enenitrile] gave an IC50 of 4.8 nM.

With `CC(C)(C=C(C#N)C(=O)N1CCC[C@@H](n2c(=O)n(-c3ccc(Oc4cccc(F)c4F)cc3)c3c(N)nccc32)C1)N1CCN(C2COC2)CC1` [Compound 25, (R)-2-(3-(4-amino-3-(4-(2,3-difluorophenoxy)phenyl)-2-oxo-2,3-dihydro-1H-imidazo[4,5-c]pyridin-1-yl)piperidine-1-carbonyl)-4-methyl-4-(4-(oxetan-3-yl)piperazin-1-yl)pent-2-enenitrile] the IC50 was 5.4 nM.

`CC(C)(C=C(C#N)C(=O)N1CCC[C@@H](n2c(=O)n(-c3ccc(Oc4ccccc4)c(F)c3)c3c(N)nccc32)C1)N1CCN(C2COC2)CC1` [Compound 26, (R)-2-(3-(4-amino-3-(3-fluoro-4-phenoxyphenyl)-2-oxo-2,3-dihydro-1H-imidazo[4,5-c]pyridin-1-yl)piperidine-1-carbonyl)-4-methyl-4-(4-(oxetan-3-yl)piperazin-1-yl)pent-2-enenitrile] gave an IC50 of 3.5 nM.
